Test results as given in patent US8415469B2, “Compounds and methods for kinase modulation, and indications therefor” (Plexxikon Inc., priority 2005, dated 2013).
One block for each molecule: values may come before it.

Legend:
Type in all cases: biochemical
[1] = target: MAP4K4 (Homo sapiens, UniProt O95819); test: AlphaScreen kinase assay, MAP4K4; settings: read-out: IC50, activity toward kinase MAP4K4
[2] = target: T1, Kit (Homo sapiens, UniProt P10721); test: AlphaScreen kinase assay, Kit; settings: read-out: IC50, activity toward kinase Kit
T1 construct: P1332.N6 BI PTP KIT M552-K948-X COD; His6 (N); made in house; host or cells: E. coli (PTP1B co-expressed)
T1 sequence (P10721 with tags, fused parts or gaps): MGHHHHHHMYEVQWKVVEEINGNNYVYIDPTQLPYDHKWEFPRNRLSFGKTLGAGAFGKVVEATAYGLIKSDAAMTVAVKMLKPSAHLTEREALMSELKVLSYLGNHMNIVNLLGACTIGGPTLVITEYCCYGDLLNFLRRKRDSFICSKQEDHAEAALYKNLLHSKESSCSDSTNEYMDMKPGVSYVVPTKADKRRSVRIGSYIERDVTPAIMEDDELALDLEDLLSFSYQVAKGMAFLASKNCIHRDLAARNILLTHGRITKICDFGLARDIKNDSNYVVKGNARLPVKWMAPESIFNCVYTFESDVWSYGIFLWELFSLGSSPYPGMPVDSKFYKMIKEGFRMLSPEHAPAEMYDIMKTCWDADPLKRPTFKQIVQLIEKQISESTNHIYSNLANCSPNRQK

[3] = target: T2, FGFR1 (Homo sapiens, UniProt P11362, C488A/C584S); test: AlphaScreen kinase assay, FGFR1; settings: read-out: IC50, activity toward kinase FGFR
T2 construct: P1351.pET N6 BI-PTP FGFR A458-E765-X C488A, C584S; made in house; host or cells: E. coli (PTP1B co-expressed)
T2 sequence (P11362 458-765 C488A/C584S): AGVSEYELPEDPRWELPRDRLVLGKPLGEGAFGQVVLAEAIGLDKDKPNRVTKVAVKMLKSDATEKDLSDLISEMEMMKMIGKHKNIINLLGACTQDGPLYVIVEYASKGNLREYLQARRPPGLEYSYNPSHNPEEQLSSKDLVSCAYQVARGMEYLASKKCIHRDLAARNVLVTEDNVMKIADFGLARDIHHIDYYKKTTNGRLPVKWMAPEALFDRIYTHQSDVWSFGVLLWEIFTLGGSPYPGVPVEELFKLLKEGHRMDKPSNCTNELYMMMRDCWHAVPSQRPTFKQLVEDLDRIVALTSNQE

[4] = target: T3, Stk6 (Homo sapiens, UniProt O14965); test: Z'-Lyte FRET kinase assay (Invitrogen), Stk6; settings: read-out: IC50, activity toward kinase Stk6
T3 construct: purchased Invitrogen (Carlsbad, Calif.), screening service
T3 sequence (O14965 1-403): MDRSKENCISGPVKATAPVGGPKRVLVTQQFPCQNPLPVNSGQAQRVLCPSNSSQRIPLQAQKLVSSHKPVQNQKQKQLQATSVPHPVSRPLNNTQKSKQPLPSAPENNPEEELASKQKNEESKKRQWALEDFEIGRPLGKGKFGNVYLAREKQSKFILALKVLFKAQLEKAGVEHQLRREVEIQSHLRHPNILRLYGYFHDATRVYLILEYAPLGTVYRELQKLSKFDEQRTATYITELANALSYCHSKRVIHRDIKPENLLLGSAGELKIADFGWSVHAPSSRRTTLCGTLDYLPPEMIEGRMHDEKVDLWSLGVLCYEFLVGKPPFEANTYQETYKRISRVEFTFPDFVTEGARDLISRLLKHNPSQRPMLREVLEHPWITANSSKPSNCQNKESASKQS

[5] = target: T4, Zap70 (Homo sapiens, UniProt P43403); test: AlphaScreen kinase assay, Zap70; settings: read-out: IC50, activity toward kinase Zap70
T4 construct: P1868.pFastBac1 ZAP70 D327-G606 HIS, WT; His7 (HHHHHHH) (C); made in house
T4 sequence (P43403 with tags, fused parts or gaps): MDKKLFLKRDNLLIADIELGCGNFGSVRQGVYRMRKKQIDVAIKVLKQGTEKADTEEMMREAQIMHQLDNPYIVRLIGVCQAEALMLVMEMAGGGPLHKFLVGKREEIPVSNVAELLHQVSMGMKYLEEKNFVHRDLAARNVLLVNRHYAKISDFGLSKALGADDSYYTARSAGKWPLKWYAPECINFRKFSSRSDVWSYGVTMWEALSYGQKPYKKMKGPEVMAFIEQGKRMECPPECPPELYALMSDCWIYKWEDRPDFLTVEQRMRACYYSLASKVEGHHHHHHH
Source text: AlphaScreen assay was used to screen additional kinases. The assay is similarly dependent on the phosphorylation of a peptide substrate. In this assay, an antibody that recognizes phosphorylated substrate is bound to an acceptor bead. The peptide substrate is attached to biotin, which binds to a donor head that contains streptavidin. Thus phosphorylated substrate is bound by antibody and streptavidin, bringing the donor and acceptor heads into close proximity when kinase is not inhibited. The donor produces singlet oxygen which results in emission from the acceptor when they are in close proximity. Conversely, when kinase is inhibited, the donor and acceptor beads are not associated and the emission from the acceptor is reduced.
AlphaScreen assays were done using compounds dissolved in DMSO to a concentration of 20 mM. The compounds were diluted accordingly to the desired final concentrations in each sample well, using 1:3 serial dilution for a total of 8 concentration points.

[6] = target: T5, B-Raf V600E (Homo sapiens, UniProt P15056, V600E); test: AlphaScreen kinase assay, B-Raf V600E; settings: read-out: IC50, activity toward kinase B-Raf V600E
T5 construct: P4254. pFastBacBD-CDC37 BRAF D437-K722-X, V600E; His6 with pFastBac HT leader (TEV site) (N); made in house; host or cells: Sf9 (baculovirus; chaperone CDC37 co-expressed)
T5 sequence (P15056 with tags, fused parts or gaps V600E): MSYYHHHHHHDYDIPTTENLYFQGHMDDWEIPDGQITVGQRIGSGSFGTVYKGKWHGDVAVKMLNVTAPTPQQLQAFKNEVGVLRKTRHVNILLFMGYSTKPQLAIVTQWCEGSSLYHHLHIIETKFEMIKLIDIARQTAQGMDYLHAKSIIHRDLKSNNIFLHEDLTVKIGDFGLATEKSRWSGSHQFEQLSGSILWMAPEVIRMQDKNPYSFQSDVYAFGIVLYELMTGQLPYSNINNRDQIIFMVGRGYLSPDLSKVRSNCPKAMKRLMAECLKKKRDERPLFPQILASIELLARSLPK

[7] = target: T6, B-Raf (Homo sapiens, UniProt P15056); test: AlphaScreen kinase assay, B-Raf; settings: read-out: IC50, activity toward kinase B-Raf
T6 construct: purchased Upstate Biotechnology
T6 sequence (P15056 whole entry): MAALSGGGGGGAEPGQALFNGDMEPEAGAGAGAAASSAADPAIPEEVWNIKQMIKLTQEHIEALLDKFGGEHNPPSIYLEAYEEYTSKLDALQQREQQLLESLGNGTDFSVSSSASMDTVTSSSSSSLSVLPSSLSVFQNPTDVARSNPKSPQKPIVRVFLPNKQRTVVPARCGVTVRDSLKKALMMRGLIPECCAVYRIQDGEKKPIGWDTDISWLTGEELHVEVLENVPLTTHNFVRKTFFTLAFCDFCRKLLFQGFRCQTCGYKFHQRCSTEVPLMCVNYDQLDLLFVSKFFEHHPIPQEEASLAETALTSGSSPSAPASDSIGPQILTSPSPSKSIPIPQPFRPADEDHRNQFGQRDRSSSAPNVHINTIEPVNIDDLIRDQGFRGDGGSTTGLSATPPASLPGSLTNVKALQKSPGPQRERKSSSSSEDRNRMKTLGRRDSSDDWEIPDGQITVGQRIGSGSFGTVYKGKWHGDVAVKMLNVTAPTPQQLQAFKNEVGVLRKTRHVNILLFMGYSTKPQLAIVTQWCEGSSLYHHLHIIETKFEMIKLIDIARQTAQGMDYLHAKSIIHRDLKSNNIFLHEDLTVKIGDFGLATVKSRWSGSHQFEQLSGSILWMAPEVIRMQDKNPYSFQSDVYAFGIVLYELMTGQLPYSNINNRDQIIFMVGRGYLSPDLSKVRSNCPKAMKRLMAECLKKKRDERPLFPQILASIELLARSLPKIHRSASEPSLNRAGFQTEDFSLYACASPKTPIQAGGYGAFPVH

[8] = target: T7, Fak (Homo sapiens, UniProt Q05397); test: AlphaScreen kinase assay, Fak; settings: read-out: IC50, activity toward kinase Fak
T7 construct: P1358.pFastBacHtb FAK S411-Q686-X; His6 with pFastBacHTb leader (TEV site) (N); made in house; host or cells: Sf9 (baculovirus)
T7 sequence (Q05397 411-686): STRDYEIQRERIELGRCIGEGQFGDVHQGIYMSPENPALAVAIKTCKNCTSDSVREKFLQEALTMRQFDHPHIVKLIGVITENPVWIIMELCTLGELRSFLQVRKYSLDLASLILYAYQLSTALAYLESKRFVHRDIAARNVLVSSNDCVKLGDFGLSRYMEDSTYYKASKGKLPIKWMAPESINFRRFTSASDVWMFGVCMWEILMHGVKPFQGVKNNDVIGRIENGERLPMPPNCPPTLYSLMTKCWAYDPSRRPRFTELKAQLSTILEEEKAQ

[9] = target: T8, Yes (Homo sapiens, UniProt P07947); test: Z'-Lyte FRET kinase assay (Invitrogen), Yes; settings: read-out: IC50, activity toward kinase Yes
T8 construct: purchased Invitrogen (Carlsbad, Calif.), screening service
T8 sequence (P07947 whole entry): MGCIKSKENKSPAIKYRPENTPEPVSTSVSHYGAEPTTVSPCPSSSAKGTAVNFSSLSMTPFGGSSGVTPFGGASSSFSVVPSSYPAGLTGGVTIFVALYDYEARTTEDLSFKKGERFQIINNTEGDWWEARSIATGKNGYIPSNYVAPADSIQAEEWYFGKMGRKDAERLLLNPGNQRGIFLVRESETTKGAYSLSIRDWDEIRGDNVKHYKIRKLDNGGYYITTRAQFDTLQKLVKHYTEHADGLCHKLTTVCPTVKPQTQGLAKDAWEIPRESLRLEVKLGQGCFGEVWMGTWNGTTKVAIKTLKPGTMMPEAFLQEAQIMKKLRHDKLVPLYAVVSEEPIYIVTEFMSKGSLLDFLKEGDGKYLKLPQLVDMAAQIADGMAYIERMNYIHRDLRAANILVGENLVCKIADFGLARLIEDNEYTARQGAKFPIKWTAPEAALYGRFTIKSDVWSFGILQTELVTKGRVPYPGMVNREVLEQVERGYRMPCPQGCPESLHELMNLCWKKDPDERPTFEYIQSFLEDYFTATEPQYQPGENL
Source text: The effect of potential modulators of kinase activity can be measured in a variety of different assays known in the art. For example, direct radiometric, indirect FRET or AlphaScreen assays may be used to assess the level of phosphorylation of a substrate in the presence of test compounds in order to determine the inhibitory affect of the compound on the kinase. Invitrogen (Carlsbad, Calif.) uses a FRET based assay for Btk, EGFR, EphB2, Flt3, lrak4, Kdr, MAP2K1, MAPKAPK2, PDGFRB, PKC theta, Stk6 and Yes. For these assays, compounds of the invention were screened by Invitrogen using Z′-Lyte™ kinase assay.
Briefly, the Invitrogen kinase assay involves use of a specific peptide substrate optimized for each kinase, containing a fluorophore at each end that make up the FRET pair. The peptide sensitivity to proteolytic cleavage depends on phosphorylation of the peptide. Non-phosphorylated peptide is cleaved by a protease while peptide phosphorylated by the kinase is not cleaved. Cleavage of the peptide disrupts the FRET between the donor (coumarin) and acceptor (fluorescein) fluorophores, resulting in an increase in the ratio of donor emission to acceptor emission. The emission ratio of coumarin to fluorescein is used to assess the reaction progress. The extent of phosphorylation is determined from the emission ratio, which is low when the kinase is active (phosphorylated peptide is not cleaved, FRET pair connected) or higher for inhibited kinase (non-phosphorylated peptide is cleaved, FRET pair separated). Thus, the assay involves a kinase reaction in the presence of varying concentrations of a given compound, a development reaction with site specific protease, and detection of the fluorescent emission ratio of coumarin and fluorscein. […] Reaction conditions for each kinase are determined to provide optimal reaction times, incubation temperature, kinase and ATP concentrations. Test samples are made up in 1× kinase buffer (50 mM HEPES pH 7.5, 50 mM MgCl2, 5 mM EGTA, 0.05% BRIJ-35) and compound at desired concentration prepared in DMSO such that the final DMSO is 1%. […] Typically, assay plates are prepared to 10 μl final volume per sample, adding 2.5 μl of compound at 4× the desired concentration in 4% DMSO (serial dilution of compound provides concentration curve), 5 μl of the desired kinase mixed with Z′-LYTE™ peptide substrate (2× in 2× kinase buffer, final peptide at 2 μM), and 2.5 μl of 4×ATP solution. All kinase except for MAP2K1 were at 10 μM ATP in the kinase reaction, while MAP2K1 was at 100 μM. Samples are mixed and the kinase reaction is incubated 1 hour at room temperature, after which 5 μl of development solution is added and mixed. After incubation for another 1 hour at room temperature, 5 μl of stop reagent is added to each sample and mixed. The fluorescence signals are measured to determine the emission ratio.

[10] = target: T9, Flt1 (Homo sapiens, UniProt P17948); test: AlphaScreen kinase assay, Flt1; settings: read-out: IC50, activity toward kinase Flt1
T9 construct: P1826.pETN6 BI-PTP FLT1 M799-D1165-X WT; His6 (N); made in house; host or cells: E. coli (PTP1B co-expressed)
T9 sequence (P17948 with tags, fused parts or gaps): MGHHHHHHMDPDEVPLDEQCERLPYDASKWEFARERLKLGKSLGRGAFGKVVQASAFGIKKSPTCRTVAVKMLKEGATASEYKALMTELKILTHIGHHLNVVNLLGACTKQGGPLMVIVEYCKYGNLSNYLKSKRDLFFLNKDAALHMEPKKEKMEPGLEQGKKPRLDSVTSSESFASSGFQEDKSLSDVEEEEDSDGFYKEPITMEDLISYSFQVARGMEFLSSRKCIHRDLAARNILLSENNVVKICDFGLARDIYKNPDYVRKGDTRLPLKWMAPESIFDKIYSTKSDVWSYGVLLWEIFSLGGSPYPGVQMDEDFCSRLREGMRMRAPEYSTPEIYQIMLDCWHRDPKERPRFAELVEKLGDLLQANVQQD

[11] = target: T10, Fms (Homo sapiens, UniProt P07333); test: AlphaScreen kinase assay, Fms; settings: read-out: IC50, activity toward kinase Fms
T10 construct: purchased Upstate Biotechnology
T10 sequence (P07333 20-972): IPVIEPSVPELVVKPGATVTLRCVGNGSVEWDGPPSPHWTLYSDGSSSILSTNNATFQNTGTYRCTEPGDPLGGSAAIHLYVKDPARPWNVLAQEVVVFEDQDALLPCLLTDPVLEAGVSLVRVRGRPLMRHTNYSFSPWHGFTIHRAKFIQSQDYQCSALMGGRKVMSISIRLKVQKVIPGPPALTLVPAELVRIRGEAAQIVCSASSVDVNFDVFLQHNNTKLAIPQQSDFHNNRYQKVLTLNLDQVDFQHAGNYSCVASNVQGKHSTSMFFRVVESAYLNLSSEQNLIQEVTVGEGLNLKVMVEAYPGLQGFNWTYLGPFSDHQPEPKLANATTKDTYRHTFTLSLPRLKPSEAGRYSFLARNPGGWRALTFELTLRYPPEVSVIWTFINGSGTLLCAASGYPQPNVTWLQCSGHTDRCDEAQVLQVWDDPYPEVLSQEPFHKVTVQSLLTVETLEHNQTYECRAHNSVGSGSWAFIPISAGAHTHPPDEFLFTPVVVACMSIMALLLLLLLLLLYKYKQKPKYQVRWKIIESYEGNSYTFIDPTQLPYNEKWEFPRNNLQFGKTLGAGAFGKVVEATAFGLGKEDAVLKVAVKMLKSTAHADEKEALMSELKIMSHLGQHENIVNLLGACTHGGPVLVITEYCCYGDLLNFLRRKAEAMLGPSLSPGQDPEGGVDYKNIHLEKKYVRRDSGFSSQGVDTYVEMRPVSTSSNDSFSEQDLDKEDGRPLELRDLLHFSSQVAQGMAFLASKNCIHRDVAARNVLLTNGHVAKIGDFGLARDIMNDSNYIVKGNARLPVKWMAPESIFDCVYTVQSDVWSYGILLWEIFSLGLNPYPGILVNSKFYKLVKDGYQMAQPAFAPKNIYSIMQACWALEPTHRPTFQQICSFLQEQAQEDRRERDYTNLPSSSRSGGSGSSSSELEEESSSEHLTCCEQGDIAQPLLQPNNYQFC

[12] = target: T11, Ret (Homo sapiens, UniProt P07949); test: AlphaScreen kinase assay, Ret; settings: read-out: IC50, activity toward kinase Ret
T11 construct: P1378.pET-SF BI-PTP RET H661-R1012 HIS; made in house
T11 sequence (P07949 with tags, fused parts or gaps): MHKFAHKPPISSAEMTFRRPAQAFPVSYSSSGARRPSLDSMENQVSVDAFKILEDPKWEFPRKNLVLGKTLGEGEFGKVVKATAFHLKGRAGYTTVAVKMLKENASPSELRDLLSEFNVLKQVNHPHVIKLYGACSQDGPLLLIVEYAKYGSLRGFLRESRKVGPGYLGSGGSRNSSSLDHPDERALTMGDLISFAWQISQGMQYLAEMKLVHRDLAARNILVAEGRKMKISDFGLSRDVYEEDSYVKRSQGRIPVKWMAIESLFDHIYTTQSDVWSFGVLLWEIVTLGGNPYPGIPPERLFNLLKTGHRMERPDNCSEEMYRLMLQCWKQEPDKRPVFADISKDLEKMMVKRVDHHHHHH

MAP4K4, sequence (O95819 whole entry): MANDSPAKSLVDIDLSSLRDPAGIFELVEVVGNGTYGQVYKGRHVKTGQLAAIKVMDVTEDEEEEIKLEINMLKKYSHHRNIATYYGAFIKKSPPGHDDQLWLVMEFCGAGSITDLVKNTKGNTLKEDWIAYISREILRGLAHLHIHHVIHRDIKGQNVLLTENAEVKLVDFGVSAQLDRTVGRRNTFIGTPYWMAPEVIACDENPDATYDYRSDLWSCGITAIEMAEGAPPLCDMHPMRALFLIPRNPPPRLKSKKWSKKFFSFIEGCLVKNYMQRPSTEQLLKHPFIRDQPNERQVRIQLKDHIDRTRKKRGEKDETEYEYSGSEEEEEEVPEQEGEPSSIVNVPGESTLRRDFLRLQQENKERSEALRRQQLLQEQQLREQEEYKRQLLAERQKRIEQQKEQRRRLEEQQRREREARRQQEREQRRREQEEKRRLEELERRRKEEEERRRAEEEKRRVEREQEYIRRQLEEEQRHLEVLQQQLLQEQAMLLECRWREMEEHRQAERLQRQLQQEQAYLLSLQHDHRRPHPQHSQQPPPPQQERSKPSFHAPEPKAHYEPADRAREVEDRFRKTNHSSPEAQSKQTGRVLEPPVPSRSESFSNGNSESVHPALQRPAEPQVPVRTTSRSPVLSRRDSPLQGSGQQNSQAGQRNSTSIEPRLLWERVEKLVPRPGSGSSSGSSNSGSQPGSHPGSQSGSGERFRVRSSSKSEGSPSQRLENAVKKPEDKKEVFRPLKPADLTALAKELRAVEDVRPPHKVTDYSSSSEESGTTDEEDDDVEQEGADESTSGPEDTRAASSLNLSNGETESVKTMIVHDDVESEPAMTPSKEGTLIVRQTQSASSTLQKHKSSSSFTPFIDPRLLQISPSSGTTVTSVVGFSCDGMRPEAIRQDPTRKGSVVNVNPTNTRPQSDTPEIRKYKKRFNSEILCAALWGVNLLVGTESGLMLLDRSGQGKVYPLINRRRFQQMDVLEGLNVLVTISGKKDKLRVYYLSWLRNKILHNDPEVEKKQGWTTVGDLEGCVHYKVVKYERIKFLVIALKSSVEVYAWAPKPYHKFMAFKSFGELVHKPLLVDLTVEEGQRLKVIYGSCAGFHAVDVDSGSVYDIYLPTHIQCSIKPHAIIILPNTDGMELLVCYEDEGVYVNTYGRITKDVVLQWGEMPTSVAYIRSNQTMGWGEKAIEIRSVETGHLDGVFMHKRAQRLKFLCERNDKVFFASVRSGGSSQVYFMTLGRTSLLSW

Structure (SMILES): O=C(c1ccccc1)c1c[nH]c2ncccc12 [Compound P-0402]
IC50 [2]: ≤ 10 µM | IC50 [1]: ≤ 10 µM

Structure (SMILES): CCOc1ccccc1-c1c[nH]c2ncccc12 [Compound P-0527]
IC50 [1]: ≤ 10 µM

Structure (SMILES): c1ccc(Oc2ccc(Cc3c[nH]c4ncccc34)cc2)cc1 [Compound P-0310]
IC50 [7]: ≤ 10 µM | IC50 [8]: ≤ 10 µM | IC50 [9]: ≤ 10 µM | IC50 [5]: ≤ 10 µM

Structure (SMILES): O=S(=O)(NCc1c[nH]c2ncccc12)c1ccc(-c2cccc(CO)c2)cc1 [Compound P-0193]
IC50 [4]: ≤ 10 µM | IC50 [5]: ≤ 10 µM

Structure (SMILES): COc1cc(OC)cc(C(=O)c2c[nH]c3ncc(-c4ccccc4)cc23)c1 [Compound P-1406, (3,5-Dimethoxy-phenyl)-(5-phenyl-1H-pyrrolo[2.3 b]pyridin-3-yl)-methanone]
IC50 [3]: ≤ 10 µM | IC50 [10]: ≤ 10 µM | IC50 [11]: ≤ 10 µM | IC50 [2]: ≤ 10 µM | IC50 [1]: ≤ 10 µM

Structure (SMILES): O=C(c1cccc(F)c1)c1c[nH]c2ncccc12 [Compound P-0367]
IC50 [2]: ≤ 10 µM | IC50 [12]: ≤ 10 µM | IC50 [1]: ≤ 10 µM

Structure (SMILES): O=C(c1cccnc1)c1c[nH]c2ncccc12 [Compound P-0518]
IC50 [1]: ≤ 10 µM

Structure (SMILES): Cc1cc(C(=O)c2c[nH]c3ncccc23)n(C)n1 [Compound P-0357]
IC50 [1]: ≤ 10 µM

Structure (SMILES): CN1CCN(Cc2ccc(C(=O)Nc3ccc(Cc4c[nH]c5ncccc45)cc3)cc2)CC1 [Compound P-0795]
IC50 [8]: ≤ 10 µM | IC50 [12]: ≤ 10 µM | IC50 [5]: ≤ 10 µM

Structure (SMILES): Cc1[nH]c2ncccc2c1-c1ccc(-c2ccccc2)cc1 [Compound P-0601]
IC50 [1]: ≤ 10 µM

Structure (SMILES): Cc1[nH]c2ncccc2c1-c1ccncc1 [Compound P-0537]
IC50 [1]: ≤ 10 µM

Structure (SMILES): c1cnc2ccc(Nc3ccnc4[nH]ccc34)cc2c1 [Compound P-1042]
IC50 [1]: ≤ 10 µM

Structure (SMILES): O=C(O)/C=C/c1cccc(-c2cnc3[nH]cc(C(=O)c4cccc(OC(F)F)c4)c3c2)c1 [Compound P-1418, (E)-3-{3-[3-(3-Difluoromethoxy-benzoyl)-1H-pyrrolo[2,3-b]pyridin-5-yl]-phenyl}-acrylic acid]
IC50 [6]: ≤ 10 µM | IC50 [3]: ≤ 10 µM | IC50 [10]: ≤ 10 µM | IC50 [1]: ≤ 10 µM

Other lines, results leading:

IC50 [1]: ≤ 10 µM
Structure (SMILES): Cc1[nH]c2ncccc2c1-c1ccccc1 [Compound P-0488]

IC50 [3]: ≤ 10 µM | IC50 [1]: ≤ 10 µM
Structure (SMILES): Fc1ccc(Cc2c[nH]c3ncccc23)cc1 [Compound P-0220]

IC50 [4]: ≤ 10 µM | IC50 [5]: ≤ 10 µM
Structure (SMILES): COc1ccc(F)cc1Cc1c[nH]c2ncccc12 [Compound P-0348]

IC50 [6]: ≤ 10 µM | IC50 [2]: ≤ 10 µM | IC50 [1]: ≤ 10 µM
Structure (SMILES): O=C(c1cc(Cl)cc(Cl)c1)c1c[nH]c2ncc(-c3cccnc3)cc12 [Compound P-1414, (3,5-Dichloro-phenyl)-(5-pyridin-3-yl-1H-pyrrolo[2,3-b]pyridin-3-yl)-methanone]

IC50 [1]: ≤ 10 µM
Structure (SMILES): COc1ccc(-c2c(C)[nH]c3ncccc23)cc1OC [Compound P-0862]

IC50 [1]: ≤ 10 µM
Structure (SMILES): Clc1cccc(-c2c[nH]c3ncccc23)c1 [Compound P-0449]

IC50 [1]: ≤ 10 µM
Structure (SMILES): NC(=O)c1ccc(-c2c(CN3CCOCC3)[nH]c3ncccc23)cc1 [Compound P-0695]

IC50 [1]: ≤ 10 µM
Structure (SMILES): c1ccc(Cc2c[nH]c3ncccc23)cc1 [Compound P-0256]

IC50 [10]: ≤ 10 µM | IC50 [1]: ≤ 10 µM
Structure (SMILES): COc1ccc(-c2c[nH]c3ncccc23)c(OC)c1 [Compound P-0477]
